Measured values taken from patent US20040242459A1 (priority 2001, published 2004).
pKd: −log10 of the molar value. Marks after values point to notes of the source that are not given here.

Experiments:
[1] = tested on: PPAR-α, PPAR-γ and PPAR-δ; experiment: Classification of ligands according to their PPAR activity (Table A); design: species or system human; conditions: classification based on IC50 and EC50 data of Table B
[2] = tested on: adjuvant-induced arthritis in female Lewis rats; conditions: for change in body weight Day 14-0 / Change in Secondary Foot Volume Day 14-0 / Change in Primary Foot Volume Day 4-0 / change in body weight Day 21-0: p.o. q.d.; for change in body weight Day 14-0 / Change in Secondary Foot Volume Day 14-0 / Change in Primary Foot Volume Day 4-0: Compounds 1, 2, 4, 6 30 mg/kg/day; for change in body weight Day 14-0: Compound 3 50, Compound 5 100, indomethacin 2 mg/kg/day; for change in body weight Day 14-0 / Spleen / Thymus / Change in Secondary Foot Volume Day 14-0 / Change in Primary Foot Volume Day 21-0 / Change in Primary Foot Volume Day 4-0 / Change in Primary Foot Volume Day 14-0 / radiographic total scores on day 21, Primary (injected) paw / radiographic total scores on day 21, Secondary (contralateral) Paw / change in body weight Day 21-0 / Thymus (mg): mean ± SD; for prevention of swelling of primary or secondary paws: up to day 14, rats then euthanized; for Spleen / Thymus / Thymus (mg): weight at necropsy, day of euthanasia 21 (Compound 1, indomethacin) or 15 (Compounds 2-6); for Secondary Foot Volume % Inhibition Compared to Vehicle Day 21-0 / Change in Secondary Foot Volume Day 21-0 / Change in Secondary Foot Volume Day 14-0 / Secondary Foot Volume % Inhibition Compared to Vehicle Day 14-0: contralateral paw; for Change in Secondary Foot Volume Day 21-0: mean, SD wrapped to next line; for Change in Secondary Foot Volume Day 14-0 / Change in Primary Foot Volume Day 4-0: Compound 3 50, Compound 5 100, indomethacin 2; for Secondary Foot Volume % Inhibition Compared to Vehicle Day 14-0 / Primary Foot Volume % Inhibition Compared to Vehicle Day 4-0 / Primary Foot Volume % Inhibition Compared to Vehicle Day 14-0 / Change in Primary Foot Volume Day 14-0: same doses p.o. q.d.; for radiographic total scores on day 21, Primary (injected) paw / radiographic total scores on day 21, Secondary (contralateral) Paw: maximum score per foot 26; for change in body weight Day 21-0: indomethacin 2 mg/kg/day; for body weight gain compared with vehicle-treated animals: prophylactic, Compound 1 30 mg/kg q.d.
Description: Nine groups of 10 rats each were injected with an emulsion containing 0.5 mg of Mycobacterium butyricum in 0.1 ml of light mineral oil, and a negative control group of 10 rats was not injected with adjuvant. Body weights, primary (injected) and contralateral (non-injected) paw volumes (determined by mercury displacement plethysmography) and lateral radiographs (obtained under Ketamine and Xylazine anesthesia) were determined before (day-1) and at various time points including 21 days following adjuvant injection. The rats were anesthetized with an intramuscular injection of 0.03-0.1 ml of a combination of Ketamine (87 mg/kg) and Xylazine (13 mg/kg) for radiographs and injection of adjuvant. Lateral to medial radiographs were made of both hind paws on days 0 and 21 for using the Faxitron (45 kVp, 30 seconds or 45 kVp, 1 second) and Kodak X-OMAT TL film, and were developed in an automatic processor. […] Specific criteria were used to establish the numerical grade of severity for each radiographic change. The maximum possible score per foot was 26. Compounds or vehicle were administered prophylactically beginning post injection of adjuvant and continuing for 21 days. The Compounds were prepared weekly, refrigerated in the dark until used, and vortex mixed immediately prior to administration. […] The liver, thymus and spleens of all rats were removed and weighed and both hind paws were removed and radiographed.
Two-factor (‘treatment’ and ‘time’) analysis of variance with repeated measures on ‘time’ were applied to the percent changes for body weight and foot volumes and to the rank-transformed radiographic total scores. A post hoc Dunnett's test was conducted to compare the effect of treatments to vehicle. A one-way analysis of variance was applied to the thymic and spleen weights followed by the Dunnett's test to compare the effect of treatments to vehicle.
Compounds or vehicle (0.5% Methocel in sterile water) were administered by oral gavage once daily for 21 days following induction of arthritis in female Lewis rats via the sub plantar injection of 0.1 ml of light mineral oil containing 0.5 mg of Mycobacterium butyricum. Control animals were not injected with adjuvant. Body weights were measured 1 day prior to (i.e. day 0) and at 14 and 21 days post induction of arthritis. The data in Table 1 represent the mean increase or decrease in body weight ±1 standard deviation for groups of 9 to 10 animals.
Compounds or vehicle (0.5% Methocel in sterile water) were administered by oral gavage once daily for 21 days following induction of arthritis in female Lewis rats via the sub plantar injection of 0.1 ml of light mineral oil containing 0.5 mg of Mycobacterium butyricum. Control animals were not injected with adjuvant.
Injected foot volumes were measured by mercury displacement plethysmography prior to induction of arthritis, and on days 4, 14 and 21 post induction of arthritis. The data represent the mean increase in foot volume ±1 standard deviation for groups of 9 to 10 animals. The extent of paw swelling in compound-treated animals was compared to the mean of that in the vehicle-treated group, and percentage inhibition was calculated for each dose level of compound.
Contralateral foot volumes were measured by mercury displacement plethysmography prior to, and at days 14 and 21 post induction of arthritis. The data represent the mean increase in foot volume ±1 standard deviation for groups of 9 to 10 animals. The extent of paw swelling in compound-treated animals was compared to the mean of that in the vehicle-treated group, and percentage inhibition was calculated for each dose level of compound.
[…] Data represent the mean weights of organs in mg ±1 standard deviation for groups of 9 to 10 animals.
Total radiographic scores were derived from examination of lateral radiographs obtained prior to, and on day 21 post induction of arthritis.

[3] = target: T1, recombinant human PPARδ (GST-PPARδ) (Homo sapiens, UniProt Q03181); experiment: Scintillation Proximity Assay, displacement of [3H2]Compound B from PPARδ; format: binding; conditions: SPA, radioligand
T1 construct: The full length human cDNAs for PPARδ and PPARα were subcloned into the pGEX-KT expression vector; made in house; host or cells: E. coli
T1 sequence (Q03181 1-441): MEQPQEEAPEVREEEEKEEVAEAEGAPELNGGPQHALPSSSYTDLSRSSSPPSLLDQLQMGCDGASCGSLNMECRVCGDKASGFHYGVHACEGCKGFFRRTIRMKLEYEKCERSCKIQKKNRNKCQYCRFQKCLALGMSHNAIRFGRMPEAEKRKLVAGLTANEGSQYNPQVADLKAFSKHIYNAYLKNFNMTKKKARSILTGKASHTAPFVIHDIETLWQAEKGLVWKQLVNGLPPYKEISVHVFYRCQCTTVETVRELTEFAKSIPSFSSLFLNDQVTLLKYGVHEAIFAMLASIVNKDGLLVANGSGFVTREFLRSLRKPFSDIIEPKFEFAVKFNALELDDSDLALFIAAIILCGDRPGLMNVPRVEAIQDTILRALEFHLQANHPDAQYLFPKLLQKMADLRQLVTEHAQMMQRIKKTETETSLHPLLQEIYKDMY
Source text: As an approach to identifying human PPAR agonists, a Scintillation Proximity Assay was used to characterize PPAR-γ, PPAR-δ, and PPAR-α ligands.
Human PPARγ2, human PPARδ and human PPARα were expressed as GST-fusion proteins in E. coli. The full length human cDNA for PPARγ 2 was subcloned into the pGEX-2 T expression vector (Amersham Pharmacia Biotech, Inc.). The full length human cDNAs for PPARδ and PPARα were subcloned into the pGEX-KT expression vector (Amersham Pharmacia Biotech, Inc.). E. coli containing the respective plasmids were propagated, induced, and harvested by centrifugation. The resuspended pellet was broken in a French press and debris removed by centrifugation. Recombinant human PPAR receptors were purified by affinity chromatography on glutathione sepharose. After application to the column, and one wash, receptor was eluted with glutathione. Glycerol (10%) was added to stabilize the receptor and aliquots were stored at −80° C.
After incubation for ˜16 h at 15° C. with shaking, the assay plates were counted in a Packard Topcount with quench correction.

[4] = Compound 1 30 mg/kg/day, indomethacin 2 mg/kg/day p.o. q.d.
[5] = day 21, 30 mg/kg q.d. prophylactic
[6] = injected paw, Compound 1 30 mg/kg/day, indomethacin 2 mg/kg/day p.o. q.d.

Row | SMILES | PPAR Activity [1] | change in body weight Day 14-0 [2] | prevention of swelling of primary or secondary paws [2] | Spleen [2] [mg] | Thymus [2] [mg] | Secondary Foot Volume % Inhibition Compared to Vehicle Day 21-0 [2, 4] [%] | Change in Secondary Foot Volume Day 21-0 [2, 4] [µL] | Change in Secondary Foot Volume Day 14-0 [2] | Secondary Foot Volume % Inhibition Compared to Vehicle Day 14-0 [2] [%] | radiographic total scores of contralateral paws compared with vehicle ([2]; day 21) | Change in Primary Foot Volume Day 21-0 [2, 6] | Change in Primary Foot Volume Day 4-0 ([2]; injected paw) | Primary Foot Volume % Inhibition Compared to Vehicle Day 4-0 ([2]; injected paw) [%] | Primary Foot Volume % Inhibition Compared to Vehicle Day 14-0 ([2]; injected paw) [%] | Change in Primary Foot Volume Day 14-0 ([2]; injected paw) | radiographic total scores on day 21, Primary (injected) paw [2, 4] | radiographic total scores on day 21, Secondary (contralateral) Paw [2, 4] | change in body weight Day 21-0 ([2]; Compound 1 30 mg/kg/day) | body weight gain compared with vehicle-treated animals [2] | degree of thymic involution compared with vehicle ([2]; rat, in vivo) | further results
1 | CN(CCOc1ccc(CC2SC(=O)NC2=O)cc1)c1ccccn1 (stereo not drawn) [Compound 6, Rosiglitazone, reference compound] | Gamma Agonist | 0.4 ± 6.4**^++ grams | failed to prevent swelling of either the primary or secondary paws | 634.5 ± 91.4 | 187.8 ± 50.4 |  |  |  |  |  |  |  |  |  |  |  |  |  |  |  | 
2 | Cc1cc(SCc2sc(-c3ccc(C(F)(F)F)cc3)nc2C)ccc1OCC(=O)O.[Na+] [Compound 1] |  | 1.9 ± 6.6**^++ grams |  | 601.0 ± 52.8 |  | 77.8 | 246.0 | 38 ± 161^++ μL | 92.4 | significantly less | 2612 ± 909 µL | 1510 ± 523^+ μL | 23.1 | 30.0 | 1530 ± 659**^++ μL | 13.0 ± 7.2 | 1.8 ± 3.3^++ | 2.9 ± 7.4**^++ grams | gained more weight than did vehicle-treated animals | less severe | swelling of the contralateral (secondary) paw [2, 5]: inhibited the day 21 swelling of the contralateral (secondary) paw; swelling of the primary (injected) paw [2, 5]: did not affect the swelling of the primary (injected) paw; Liver (mg) ([2]; rat, in vivo): 1209.0 ± 129.0**^++ mg; liver weight compared with vehicle ([2]; rat, in vivo): significantly heavier; Thymus (mg) [2]: 275.0 ± 50.4**^++ mg
3 | CC(C)OC(=O)C(C)(C)Oc1ccc(C(=O)c2ccc(Cl)cc2)cc1 [Compound 5, Fenofibrate, reference compound] |  | −7.6 ± 5.3 grams | failed to prevent swelling of either the primary or secondary paws | 644.4 ± 159.2 | 155.3 ± 27.8 |  |  | 824 ± 186 µL |  |  |  | 1421 ± 212^+ μL |  |  | 1945 ± 415 µL |  |  |  |  |  | 
4 | Cc1cccc(Nc2cc(Cl)nc(SCC(=O)O)n2)c1C [Compound 4, WY-14643, reference compound] | Alpha Agonist | −15.2 ± 6.8 grams | failed to prevent swelling of either the primary or secondary paws | 665.1 ± 69.8 | 146.8 ± 33.4 |  |  | 704 ± 421 µL | 22.1 |  |  | 2133 ± 266 µL | 0 |  | 2585 ± 733 µL |  |  |  |  |  | 
5 | CCCc1c(OCCCSc2ccc(CC(=O)O)cc2Cl)ccc2c(C(F)(F)F)noc12 [Compound B, 3-chloro-4-(3-(7-propyl-3-trifluoromethyl-6-benz-[4,5]-isoxazoloxy)propylthio)phenylacetic acid, reference compound] |  |  |  |  |  |  |  |  |  |  |  |  |  |  |  |  |  |  |  |  | pKd [3]: ~9.00
6 | COc1ccc2c(c1)c(CC(=O)O)c(C)n2C(=O)c1ccc(Cl)cc1 [Indomethacin, indomethacin, reference compound] |  | 8.6 ± 7.7**^++ grams |  | 738.0 ± 124.0 |  | 79.2 | 201.0 | 275 ± 138^++ μL | 62.0 | significantly less | 499 ± 135^++ μL | 798 ± 164^++ μL | 59.2 | 65.7 | 799 ± 159*^++ μL | 4.3 ± 1.3^++ | 3.3 ± 1.3**^++ | 11.6 ± 8.0**^++ grams | gained more weight than did vehicle-treated animals | less severe | radiographic total scores of primary paws compared with vehicle ([2]; day 21): significantly less; Primary Foot Volume % Inhibition Compared to Vehicle Day 21-0 [2, 6]: 79.2%; Liver ([2]; rat, in vivo): 866.0 ± 86.0 mg; Thymus (mg) [2]: 426.0 ± 69.0^++ mg
